Data as given in ChEMBL document CHEMBL5303765, “Data for DCP probe BAY-7081” (2023).

Experiments:
[1] = biological target: Cyclin-dependent kinase 16 (Homo sapiens) (UniProt Q00536); experiment: PCTK1 SGC Tm panel (DSF); conditions: for ΔTm: Compound concentration 10.0 uM
[2] = biological target: D(1B) dopamine receptor (Homo sapiens) (UniProt P21918); conditions: Compound concentration 10.0 uM
[3] = biological target: 5-hydroxytryptamine receptor 2B (Homo sapiens) (UniProt P41595); conditions: Compound concentration 10.0 uM
[4] = biological target: T1, Muscarinic acetylcholine receptor M1 (Homo sapiens) (UniProt P11229); conditions: Compound concentration 10.0 uM
T1 sequence (whole entry): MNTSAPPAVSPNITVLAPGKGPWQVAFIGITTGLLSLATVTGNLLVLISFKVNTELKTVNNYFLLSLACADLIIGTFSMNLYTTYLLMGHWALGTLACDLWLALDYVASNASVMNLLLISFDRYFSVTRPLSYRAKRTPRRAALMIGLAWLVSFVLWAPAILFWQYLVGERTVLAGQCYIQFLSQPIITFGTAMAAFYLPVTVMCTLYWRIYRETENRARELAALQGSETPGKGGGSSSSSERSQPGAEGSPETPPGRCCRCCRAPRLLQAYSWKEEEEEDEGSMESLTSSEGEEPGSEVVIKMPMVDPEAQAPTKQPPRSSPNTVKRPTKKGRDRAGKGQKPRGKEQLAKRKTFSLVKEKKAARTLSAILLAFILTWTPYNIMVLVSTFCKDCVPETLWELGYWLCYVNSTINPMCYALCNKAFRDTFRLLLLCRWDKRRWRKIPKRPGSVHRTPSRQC

[5] = biological target: Death-associated protein kinase 3 (Homo sapiens) (UniProt O43293); experiment: DAPK3 SGC Tm panel (DSF); conditions: for ΔTm: Compound concentration 10.0 uM
[6] = biological target: Ephrin type-A receptor 5 (Homo sapiens) (UniProt P54756); experiment: EPHA5 SGC Tm panel (DSF); conditions: for ΔTm: Compound concentration 10.0 uM
[7] = biological target: T2, Serine/threonine-protein kinase tousled-like 1 (Homo sapiens) (UniProt Q9UKI8); experiment: TLK1 SGC Tm panel (DSF); conditions: for ΔTm: Compound concentration 10.0 uM
T2 sequence (whole entry): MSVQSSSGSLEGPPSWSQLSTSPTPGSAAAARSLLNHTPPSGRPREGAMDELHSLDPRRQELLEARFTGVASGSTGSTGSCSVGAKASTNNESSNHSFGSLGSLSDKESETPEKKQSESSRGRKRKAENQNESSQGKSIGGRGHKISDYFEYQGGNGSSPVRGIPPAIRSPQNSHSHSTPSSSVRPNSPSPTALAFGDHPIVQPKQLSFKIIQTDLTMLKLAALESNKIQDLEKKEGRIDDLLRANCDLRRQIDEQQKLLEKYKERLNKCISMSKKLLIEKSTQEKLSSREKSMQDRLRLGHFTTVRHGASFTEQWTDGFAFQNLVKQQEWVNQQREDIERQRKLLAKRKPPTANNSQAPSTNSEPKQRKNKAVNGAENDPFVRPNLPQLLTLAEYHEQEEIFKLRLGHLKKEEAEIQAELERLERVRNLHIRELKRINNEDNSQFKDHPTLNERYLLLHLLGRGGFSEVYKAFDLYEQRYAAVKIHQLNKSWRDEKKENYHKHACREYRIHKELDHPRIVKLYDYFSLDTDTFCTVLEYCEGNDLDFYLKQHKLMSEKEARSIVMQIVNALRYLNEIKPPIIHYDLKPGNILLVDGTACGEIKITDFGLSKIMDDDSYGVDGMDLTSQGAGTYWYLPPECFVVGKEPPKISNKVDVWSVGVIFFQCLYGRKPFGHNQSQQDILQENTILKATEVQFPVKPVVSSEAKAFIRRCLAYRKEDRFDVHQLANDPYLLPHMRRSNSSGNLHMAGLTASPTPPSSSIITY

Rattus norvegicus = species: Rattus norvegicus; conditions: Compound concentration 10.0 uM
[8] = biological target: Casein kinase I isoform epsilon (Homo sapiens) (UniProt P49674); experiment: CSNK1E SGC Tm panel (DSF); conditions: for ΔTm: Compound concentration 10.0 uM
[9] = biological target: Casein kinase II subunit alpha' (Homo sapiens) (UniProt P19784); experiment: CSNK2A2 SGC Tm panel (DSF); conditions: for ΔTm: Compound concentration 10.0 uM
[10] = biological target: STE20/SPS1-related proline-alanine-rich protein kinase (Homo sapiens) (UniProt Q9UEW8); experiment: STK39 SGC Tm panel (DSF); conditions: for ΔTm: Compound concentration 10.0 uM
[11] = biological target: Dual specificity protein kinase CLK1 (Homo sapiens) (UniProt P49759); experiment: CLK1 SGC Tm panel (DSF); conditions: for ΔTm: Compound concentration 10.0 uM
Sequence of Dual specificity protein kinase CLK1 (Homo sapiens) (P49759 whole entry, looked up): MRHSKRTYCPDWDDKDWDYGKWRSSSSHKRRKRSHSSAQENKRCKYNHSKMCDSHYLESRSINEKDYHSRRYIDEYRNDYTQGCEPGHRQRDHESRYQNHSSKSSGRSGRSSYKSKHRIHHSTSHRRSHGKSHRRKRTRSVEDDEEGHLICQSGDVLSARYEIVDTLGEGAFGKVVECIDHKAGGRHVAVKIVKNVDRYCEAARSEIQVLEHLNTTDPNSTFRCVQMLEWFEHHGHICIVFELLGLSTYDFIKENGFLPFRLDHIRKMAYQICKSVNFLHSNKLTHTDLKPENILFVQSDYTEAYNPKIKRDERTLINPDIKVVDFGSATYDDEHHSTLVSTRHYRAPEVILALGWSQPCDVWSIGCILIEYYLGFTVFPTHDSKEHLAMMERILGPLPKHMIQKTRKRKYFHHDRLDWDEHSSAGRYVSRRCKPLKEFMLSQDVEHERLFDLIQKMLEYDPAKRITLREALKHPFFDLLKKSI

Sequence of 5-hydroxytryptamine receptor 2B (Homo sapiens) (P41595 whole entry): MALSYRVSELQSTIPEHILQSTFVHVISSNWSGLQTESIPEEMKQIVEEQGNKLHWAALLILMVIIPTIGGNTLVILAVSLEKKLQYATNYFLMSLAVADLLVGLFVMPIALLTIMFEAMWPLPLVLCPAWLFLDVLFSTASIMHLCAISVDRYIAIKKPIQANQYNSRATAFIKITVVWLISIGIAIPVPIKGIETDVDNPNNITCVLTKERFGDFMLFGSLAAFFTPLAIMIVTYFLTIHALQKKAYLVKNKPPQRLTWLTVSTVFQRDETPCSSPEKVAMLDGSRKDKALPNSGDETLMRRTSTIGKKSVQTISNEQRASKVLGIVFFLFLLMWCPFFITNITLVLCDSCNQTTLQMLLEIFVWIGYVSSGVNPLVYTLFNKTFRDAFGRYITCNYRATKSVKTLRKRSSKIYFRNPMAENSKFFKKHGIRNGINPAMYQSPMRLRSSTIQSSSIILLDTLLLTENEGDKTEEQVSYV
Sequence of Ephrin type-A receptor 5 (Homo sapiens) (P54756 whole entry): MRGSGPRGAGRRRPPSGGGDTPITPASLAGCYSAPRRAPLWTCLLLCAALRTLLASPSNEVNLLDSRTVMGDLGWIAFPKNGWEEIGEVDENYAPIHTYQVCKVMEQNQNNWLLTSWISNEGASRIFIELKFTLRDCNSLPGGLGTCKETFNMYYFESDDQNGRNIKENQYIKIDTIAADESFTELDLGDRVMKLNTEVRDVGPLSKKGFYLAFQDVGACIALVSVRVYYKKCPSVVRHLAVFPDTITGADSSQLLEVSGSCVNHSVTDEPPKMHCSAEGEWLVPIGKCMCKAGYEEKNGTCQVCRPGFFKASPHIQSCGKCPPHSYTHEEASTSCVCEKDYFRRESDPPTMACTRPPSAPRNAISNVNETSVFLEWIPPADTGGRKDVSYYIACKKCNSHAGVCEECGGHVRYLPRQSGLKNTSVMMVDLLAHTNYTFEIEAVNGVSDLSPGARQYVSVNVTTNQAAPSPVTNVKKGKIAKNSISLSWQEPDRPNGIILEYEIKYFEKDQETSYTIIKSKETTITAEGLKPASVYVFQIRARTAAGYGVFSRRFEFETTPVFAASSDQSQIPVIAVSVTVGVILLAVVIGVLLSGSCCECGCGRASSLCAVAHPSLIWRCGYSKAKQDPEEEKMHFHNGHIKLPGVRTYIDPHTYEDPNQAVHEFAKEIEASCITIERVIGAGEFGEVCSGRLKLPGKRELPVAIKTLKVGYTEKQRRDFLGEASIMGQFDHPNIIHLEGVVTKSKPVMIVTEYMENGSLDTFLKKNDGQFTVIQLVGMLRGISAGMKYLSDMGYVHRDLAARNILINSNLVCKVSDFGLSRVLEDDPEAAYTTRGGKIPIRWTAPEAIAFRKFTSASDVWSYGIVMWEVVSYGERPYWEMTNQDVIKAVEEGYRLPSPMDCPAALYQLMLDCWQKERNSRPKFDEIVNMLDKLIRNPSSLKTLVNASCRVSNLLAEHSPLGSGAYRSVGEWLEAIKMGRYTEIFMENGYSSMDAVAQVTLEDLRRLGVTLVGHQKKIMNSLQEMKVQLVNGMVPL
Sequence of Casein kinase II subunit alpha' (Homo sapiens) (P19784 whole entry, looked up): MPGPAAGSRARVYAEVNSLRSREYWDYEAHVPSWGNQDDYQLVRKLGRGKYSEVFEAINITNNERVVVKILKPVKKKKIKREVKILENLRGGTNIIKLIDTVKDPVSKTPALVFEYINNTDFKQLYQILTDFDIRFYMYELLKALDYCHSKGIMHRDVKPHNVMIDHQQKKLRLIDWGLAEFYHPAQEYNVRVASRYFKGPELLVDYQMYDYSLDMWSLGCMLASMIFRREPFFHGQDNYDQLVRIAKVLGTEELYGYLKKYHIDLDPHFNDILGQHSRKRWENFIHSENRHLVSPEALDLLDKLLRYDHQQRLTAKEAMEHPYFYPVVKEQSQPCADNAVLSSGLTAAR
Sequence of D(1B) dopamine receptor (Homo sapiens) (P21918 whole entry): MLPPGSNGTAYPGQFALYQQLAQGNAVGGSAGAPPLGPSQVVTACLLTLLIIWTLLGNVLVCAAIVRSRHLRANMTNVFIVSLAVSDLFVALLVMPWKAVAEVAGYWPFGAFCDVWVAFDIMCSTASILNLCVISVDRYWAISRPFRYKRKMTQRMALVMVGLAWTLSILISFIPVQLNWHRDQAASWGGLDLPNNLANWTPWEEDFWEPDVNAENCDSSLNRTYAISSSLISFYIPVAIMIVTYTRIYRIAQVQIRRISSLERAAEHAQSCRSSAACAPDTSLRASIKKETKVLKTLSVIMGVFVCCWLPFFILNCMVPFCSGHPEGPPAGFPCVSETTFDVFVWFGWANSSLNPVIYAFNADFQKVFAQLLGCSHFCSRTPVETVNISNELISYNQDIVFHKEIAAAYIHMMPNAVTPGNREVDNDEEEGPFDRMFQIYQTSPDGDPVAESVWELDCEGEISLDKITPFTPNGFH
Sequence of Cyclin-dependent kinase 16 (Homo sapiens) (Q00536 whole entry): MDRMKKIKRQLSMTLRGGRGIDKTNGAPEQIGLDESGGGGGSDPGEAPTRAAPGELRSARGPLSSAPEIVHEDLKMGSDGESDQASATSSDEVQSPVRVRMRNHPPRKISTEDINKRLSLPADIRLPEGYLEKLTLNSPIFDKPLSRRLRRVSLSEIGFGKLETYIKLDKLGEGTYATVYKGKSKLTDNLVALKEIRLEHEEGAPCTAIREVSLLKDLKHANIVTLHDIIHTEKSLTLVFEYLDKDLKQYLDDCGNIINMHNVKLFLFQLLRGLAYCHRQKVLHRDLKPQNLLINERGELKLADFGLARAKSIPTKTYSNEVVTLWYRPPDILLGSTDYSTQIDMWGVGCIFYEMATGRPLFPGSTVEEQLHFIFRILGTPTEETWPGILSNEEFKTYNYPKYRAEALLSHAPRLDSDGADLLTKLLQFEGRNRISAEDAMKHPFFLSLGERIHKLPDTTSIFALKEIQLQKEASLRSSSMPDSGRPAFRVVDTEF
Sequence of Casein kinase I isoform epsilon (Homo sapiens) (P49674 whole entry, looked up, canonical isoform): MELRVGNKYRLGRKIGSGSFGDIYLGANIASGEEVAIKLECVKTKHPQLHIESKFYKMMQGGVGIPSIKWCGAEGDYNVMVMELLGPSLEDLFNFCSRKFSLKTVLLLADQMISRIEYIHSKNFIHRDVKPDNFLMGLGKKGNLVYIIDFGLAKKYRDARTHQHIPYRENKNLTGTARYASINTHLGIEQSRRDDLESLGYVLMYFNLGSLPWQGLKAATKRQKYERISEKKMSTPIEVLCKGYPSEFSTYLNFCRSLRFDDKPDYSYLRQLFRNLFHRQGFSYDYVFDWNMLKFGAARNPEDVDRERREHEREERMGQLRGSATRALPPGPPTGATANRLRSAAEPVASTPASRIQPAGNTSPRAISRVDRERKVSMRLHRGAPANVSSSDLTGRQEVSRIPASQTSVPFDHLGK
Sequence of Death-associated protein kinase 3 (Homo sapiens) (O43293 whole entry, looked up): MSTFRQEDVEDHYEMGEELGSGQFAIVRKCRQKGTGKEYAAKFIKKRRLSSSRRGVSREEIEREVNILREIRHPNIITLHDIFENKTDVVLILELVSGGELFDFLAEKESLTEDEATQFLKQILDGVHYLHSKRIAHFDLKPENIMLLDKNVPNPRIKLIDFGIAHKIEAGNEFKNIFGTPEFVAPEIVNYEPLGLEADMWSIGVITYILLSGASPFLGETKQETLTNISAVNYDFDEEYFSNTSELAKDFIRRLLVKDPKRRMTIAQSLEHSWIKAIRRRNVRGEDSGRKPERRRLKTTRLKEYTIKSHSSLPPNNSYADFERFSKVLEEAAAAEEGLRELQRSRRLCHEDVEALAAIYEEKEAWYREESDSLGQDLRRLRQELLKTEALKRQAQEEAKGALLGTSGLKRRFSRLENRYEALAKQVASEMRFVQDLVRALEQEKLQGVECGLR

Row | Structure (SMILES) | delta Tm Staurosporine positive control [1] | ΔTm [1] | inhibition [2] | inhibition [3] | inhibition [4] | delta Tm Staurosporine positive control [5] | ΔTm [5] | delta Tm Staurosporine positive control [6] | ΔTm [6] | delta Tm Staurosporine positive control [7] | ΔTm [7] | inhibition (Rattus norvegicus) | delta Tm Staurosporine positive control [8] | ΔTm [8] | delta Tm Staurosporine positive control [9] | ΔTm [9] | delta Tm Staurosporine positive control [10] | ΔTm [10] | delta Tm Staurosporine positive control [11] | ΔTm [11]
1 | CCC[C@H]1CNCc2c1[nH]c(=O)c(C#N)c2N1CCC2(CC1)CC2 | 11.2 | -0.418 | 2.11% | 44.9% | 0.28% | 16.6 | 0.222 | 8.04 | -0.544 | 9.74 | -1.34 | 10.4% | 3.12 | -0.118 | 4.21 | -0.244 | 9.01 | -0.273 | 11.4 | -0.548
2 | CCC[C@@H]1CNCc2c1[nH]c(=O)c(C#N)c2N1CCC2(CC1)CC2 | 11.2 | -0.4 | 4.19% | 33% | -0.37% | 16.6 | 0.29 | 8.04 | -0.589 | 9.74 | -1.18 | 0.4% | 3.12 | -0.0146 | 4.21 | -0.242 | 9.01 | -0.455 | 11.4 | -0.372
